According to patent US7998935B2, “Quinaldine based semisquaraines and squaraine dyes, process for preparation thereof and use thereof” (Council of Scientific and Industrial Research, priority 2006, dated 2011):

Assays:
[1] = system: L1210 mouse lymphoma cells; experiment: Photocytotoxicity of squaraine dyes with and without visible light (cell survival / proliferation); assay type: cell-based; settings: for toxicity in the dark: absence of light; for photocytotoxicity (% of cell survival with increasing concentration of dye): under illumination (visible light, 1000 W halogen lamp), on ice
Method: FIG. 5: Photocytotoxicity of the squaraine dyes of general formula 2, where X=I, Y=H, R^2=CH3, and general formula 3, where X=OH, Y=H, Q=I, Z=H, R^2=CH3 in L1210 mouse lymphoma cells. Data gives the number of cell (% of controls) counted after 48 h after the treatment for 22.5 min at 0° C. with various concentrations of the squaraine dyes under dark and under irradiation. Data points represent the mean of three independent experiments (±SD).
FIG. 6: Photocytotoxicity of the sugar linked and cholesterol-squaraine dyes of general formula 3, where X=C6H11O6, Y=H, Q=I, Z=H, R^2=CH3 and where X=C27H43O3, Y=H, Q=I, Z=H, R^2=CH3 L1210 mouse lymphoma cells. Data gives the number of cell (% of controls) counted after 48 h after the treatment for 22.5 min at 0° C. with various concentrations of the squaraine derivatives under dark and under irradiation. Data points represent the mean of three independent experiments (±SD).
In order to analyze the cytotoxicity of the squaraine dyes of the general formula 2 wherein X=I, Y=H, R^2=CH3 and 3 wherein X=OH, Y=H, Q=I, Z=H, R^2=CH3, with and without visible light, the cloning efficiencies of L1210 mouse lymphoma cells exposed to various concentrations of the dyes were determined. The light exposure was carried out from a 1000 W halogen lamp at a distance of 33 cm in Ca^2+ and Mg^2+ free PBS (140 mM NaCl, 3 mM KCl, 8 mM […], pH 7.4) on ice (10^6 cells/mL). Illumination for 10 min corresponds to 225 kJ/m^2 between 400 and 800 nm. The cells were pelleted by centrifugation and resuspended in PBSG three times. The cells were resuspended at 3×10^4 cells/mL in fresh medium at 37° C. and the numbers of cells were counted repeatedly for 60 h. From the exponential part of the growth curves (between 24 and 60 h) the number of proliferating cells at the time of resuspension was calculated by extrapolation. Cell survival was defined as the ratio between proliferating and resuspended cells. Results obtained with representative quinaldine based squaraine dyes of the general formula 2 wherein X=I, Y=H, R^2=CH3 and 3 wherein X=OH, Y=H, Q=I, Z=H, are shown in FIG. 5.
The cytotoxicity induced by squaraine dyes of the general formula 3 wherein X=C6H11O6, Y=H, Q=I, Z=H, R^2=CH3 and X=C27H43O3, Y=H, Q=I, Z=H, R^2=CH3 in mouse lymphoma cells L1210 with and without visible light, was carried out as explained in EXAMPLE 8. Results obtained with representative quinaldine based squaraine dyes of the general formula 3 wherein X=C6H11O6, Y=H, Q=I, Z=H, R^2=CH3 and X=C27H43O3, Y=H, Q=I, Z=H, R^2=CH3 are shown in FIG. 6.

[2] = Absorption and fluorescence emission spectra (photophysical properties); assay type: physicochemical
Description: Semisquaraine of the general formula 1 in which a quinaldine moiety is linked to the squaric acid through methylene bridge have absorption around 480 nm with high molar extinction coefficient (4.0×10^4 M^−1 cm^−1) which depends on the substitution on the quanaldine unit. […] The absorption and fluorescence emission spectra of representative semisquaraine of the general formula 1 where X=OH, Y=H, Z=H, R^2=CH3 are shown in FIG. 1.
Similar to the semisquaraines the absorption spectra of these dyes were also dependent on the substitution on the quinaldine moiety. […] The presence of electron withdrawing groups in the quinaldine ring shifts the absorption maxima towards the blue region. […] The absorption and fluorescence emission spectra of representative symmetrical squaraine dye of the general formula 2, where X=I, Y=H, R^2=CH3 are shown in FIG. 2.
The absorption and fluorescence emission spectra of representative unsymmetrical squaraine dyes of the general formula 3, where X=C6H11O6, Y=H, Q=I, Z=H, R^2=CH3, are shown in FIG. 4.

mammalian AS52 cells = experiment: Cytotoxicity in the presence and absence of light; assay type: cell-based
Description: In the present invention, we have investigated the cytotoxicity of these dyes in mammalian AS52 cells both in the presence and absence of light.

SMILES | toxicity in the dark [1] | photocytotoxicity (% of cell survival with increasing concentration of dye) [1] | absorption maxima ([2]; in methanol) [nm] | further results
CN1/C(=C/C2=C([O-])C(=C\c3ccc4cc(I)ccc4[n+]3C)/C2=O)C=Cc2cc(I)ccc21 | less toxic in the dark | dose dependent photocytotoxicity |  | absorption maxima ([2]; in DMSO): around 750 nm; emission maxima ([2]; in dimethyl sulfoxide (DMSO)): around 772 nm
CN1/C(=C/C2=C([O-])C(=C\c3ccc4cc(O)ccc4[n+]3C)/C2=O)C=Cc2cc(I)ccc21 | less toxic in the dark | dose dependent photocytotoxicity |  | 
CCCCOc1c(C=C2C=Cc3cc(O)ccc3N2C)c(=O)c1=O |  |  | 477 | 
CCCCOc1c(C=C2C=Cc3cc(OCC)ccc3N2C)c(=O)c1=O |  |  | 478 | 
CN1/C(=C/C2=C([O-])C(=C\c3ccc4cc(O[C@@H]5O[C@H](CO)[C@@H](O)[C@H](O)[C@H]5O)ccc4[n+]3C)/C2=O)C=Cc2cc(I)ccc21 | very less toxicity in the absence of light | dose dependent photocytotoxicity |  | cytotoxicity compared with diiodo squaraine dye of general formula 2 (X=I) (mammalian AS52 cells): more cytotoxic; cytotoxicity compared with hydroxyl-substituted squaraine dye of general formula 3 (X=OH) (mammalian AS52 cells): significantly high
